Experimental data reported in patent US20250042889A1, “3CLPRO PROTEASE INHIBITOR” (SHANGHAI QILU PHARMACEUTICAL RESEARCH AND DEVELOPMENT …, priority 2021, published 2025).

Biological target: SARS-COV-2 3CLpro/Mpro protease (Severe acute respiratory syndrome coronavirus 2 (2019-nCoV) (SARS-CoV-2), UniProt P0DTD1)
Assay: Inhibitory effect on SARS-COV-2 3CLpro/Mpro protease by fluorescence resonance energy transfer
Format: biochemical
Details: IC50 (nM), Inhibition on SARS-CoV-2 3CLpro/Mpro protease, activity intervals A-D

| SMILES | IC50 [nM] |
| --- | --- |
| CNc1cncc(C(=O)N2CCC[C@@H](Nc3c(C(=O)N4C5COCC4C5)cc(Br)cc3[N+](=O)[O-])C2)c1 [Example 357, ((3R)-3-((2-(3-oxa-6-azabicyclo[3.1.1]heptan-6-carbonyl)-4-bromo-6-nitrophenyl)amino)piperidin-1-yl)(5-(methylamino)pyridin-3-yl)methanone] | 10 to 50 |

Same assay, conditions: activity intervals A-D, read-out: IC50 (nM), Inhibition on SARS-CoV-2 3CLpro/Mpro protease

| SMILES | IC50 [nM] |
| --- | --- |
| C[C@@H]1CN(C(=O)c2cc(Br)cc([N+](=O)[O-])c2N[C@@H]2CCCN(C(=O)[C@H]3CNCC(F)(F)C3)C2)CCO1 [Example 329] | 10 to 50 |
| CNc1cncc(C(=O)N2C[C@H](Nc3c(C(=O)N4C[C@@H](C)O[C@@H](C)C4)cc(Br)cc3[N+](=O)[O-])C(C)(C)C2)c1 [Example 162] | 10 to 50 |
| O=C(N[C@H]1CCCC[C@H]1Nc1c(C(=O)N2CCC(O)CC2)cc(Br)cc1C(F)(F)F)c1cncc2cc(Cl)ccc12 [Example 147] | 10 to 50 |
| O=C(c1cc(Br)cc([N+](=O)[O-])c1N[C@@H]1CCCN(C(=O)C2CNCc3ccccc32)C1)N1CCOCC1 (stereo partly shown) [Example 142] | 10 to 50 |
| COCCN1CCN(C(=O)c2cc(Br)cc([N+](=O)[O-])c2N[C@@H]2COCC[C@@H]2NC(=O)c2cncc3cc(Cl)ccc23)CC1 [Example 215] | 10 to 50 |
| CNc1cncc(C(=O)N2CCC[C@@H](Nc3c(C(=O)N4CCC(C)(OC)CC4)cc(Br)cc3[N+](=O)[O-])C2)c1 [Example 275] | 10 to 50 |
| CC1(O)CCN(C(=O)c2cc(Br)cc(C(F)(F)F)c2N[C@@H]2CCCC[C@@H]2NC(=O)c2cncc3cc(Cl)ccc23)CC1 [Example 169] | 10 to 50 |
| O=C(c1cc(Br)cc([N+](=O)[O-])c1N[C@@H]1CCCN(C(=O)[C@H]2CNCC(F)(F)C2)C1)N1CC2CCC(C1)O2 [Example 332] | 10 to 50 |
| CNc1cncc(C(=O)N2CCC[C@@H](Nc3c(C(=O)N4CC(F)(F)OC(F)(F)C4)cc(Br)cc3[N+](=O)[O-])C2)c1 [Example 368, (R)-(5-bromo-2-((1-(5-(methylamino)nicotinoyl)piperidin-3-yl)amino)-3-nitrophenyl)(2,2,6,6-tetrafluoromorpholinyl)methanone] | 10 to 50 |
| Cc1cc(C(=O)N2CCC[C@@H](Nc3c(C(=O)N4CCOCC4)cc(Br)cc3[N+](=O)[O-])C2)cc(=O)[nH]1 [Example 26, (R)-4-(3-((4-bromo-2-(morpholin-4-carbonyl)-6-nitrophenyl)amino)piperidin-1-carbonyl)-6-methylpyridin-2 (1H)-one] | 10 to 50 |
| C[C@@H]1CN(C(=O)c2cc(Br)cc([N+](=O)[O-])c2N[C@@H]2CCCC[C@@H]2NC(=O)c2cncc3cc(Cl)ccc23)C[C@H](C)N1 [Example 131] | 10 to 50 |
| CNc1cncc(C(=O)N[C@H]2CCCC[C@H]2Nc2c(C(=O)N3CCO[C@@H](C)C3)cc(Br)cc2[N+](=O)[O-])c1 [Example 231] | 10 to 50 |
| Cc1cncc(C(=O)N2CCC[C@@H](Nc3c(C(=O)N4CCC(F)(F)CC4)cc(Br)cc3[N+](=O)[O-])C2)c1 [Example 74] | 50 to 100 |
| Cc1cc(C(=O)N2C[C@H](Nc3c(C(=O)N4CCC5(CC4)CC5)cc(Br)cc3[N+](=O)[O-])C3(CC3)C2)cc(=O)[nH]1 [Example 94] | 10 to 50 |
| CNc1cncc(C(=O)N2C[C@H](Nc3c(C(=O)N4C[C@@H](C)O[C@@H](C)C4)cc(Br)cc3[N+](=O)[O-])C(F)(F)C2)c1 [Example 182] | 10 to 50 |
| CNc1cncc(C(=O)N2C[C@H](Nc3c(C(=O)N4C[C@@H](C)O[C@H](C)C4)cc(Br)cc3[N+](=O)[O-])C(F)(F)C2)c1 [Example 199] | 50 to 100 |
| Nc1cncc(C(=O)N2CCC[C@@H](Nc3c(C(=O)N4CCCCC4)cc(Br)cc3[N+](=O)[O-])C2)c1 [Example 42] | 10 to 50 |
| CNc1cncc(C(=O)N2CCC[C@@H](Nc3c(C(=O)N4C[C@@H](C)N(C)[C@@H](C)C4)cc(Br)cc3[N+](=O)[O-])C2)c1 [Example 79] | 50 to 100 |
| CNc1cncc(C(=O)N2C[C@H](Nc3c(C(=O)N4C[C@@H](C)O[C@@H](C)C4)cc(Br)cc3[N+](=O)[O-])C[C@H]2C(=O)N[C@H]2CCOC2)c1 [Example 402] | 50 to 100 |
| C[C@@H]1CN(C(=O)c2cc(Br)cc([N+](=O)[O-])c2N[C@@H]2CCN(C(=O)c3cncc(Br)c3)C2)C[C@H](C)O1 [Example 76] | < 10 |
| Cc1cc(C(=O)N2CC(Nc3c(C(=O)N4CCN(C5CCCCC5)CC4)cc(Br)cc3[N+](=O)[O-])C(F)(F)C2)cc(=O)[nH]1 (stereo not shown) [Example 300] | 10 to 50 |
| O=C1C[C@@H](C(=O)N2CCC[C@@H](Nc3c(C(=O)N4CCCCC4)cc(Br)cc3[N+](=O)[O-])C2)c2ccccc2N1 [Example 265] | 10 to 50 |
| O=C(N[C@H]1CCCC[C@H]1Nc1c(C(=O)N2CCCC2)cc(Br)cc1[N+](=O)[O-])c1cncc2ccccc12 [Example 3, N-((1S,2R)-2-((4-bromo-2-nitro-6-(pyrrolidin-1-carbonyl)phenyl)amino)cyclohexyl) isoquinolin-4-formamide] | < 10 |
| Cc1cc(C(=O)N2CC(Nc3c(C(=O)N4CCC5(CCCC5)CC4)cc(Br)cc3[N+](=O)[O-])C(F)(F)C2)cc(=O)[nH]1 (stereo not shown) [Example 156] | 10 to 50 |

| SMILES | IC50 [nM] |
| --- | --- |
| COCCN1CCN(C(=O)c2cc(Br)cc([N+](=O)[O-])c2N[C@@H]2COCC[C@@H]2NC(=O)c2cncc3ccccc23)CC1 [Example 218] | 10 to 50 |
| CNc1cncc(C(=O)N2CCC[C@@H](Nc3c(C(=O)N4CCO[C@H](CF)C4)cc(Br)cc3[N+](=O)[O-])C2)c1 [Example 37] | 10 to 50 |
| C[C@@H]1CN(C(=O)c2cc(Br)cc([N+](=O)[O-])c2N[C@@H]2COCC[C@@H]2NC(=O)c2cncc3cc(Cl)ccc23)C[C@H](C)N1 [Example 228] | 10 to 50 |
| CNc1cncc(C(=O)N2CCC[C@@H](Nc3c(C(=O)N4CCC5(CC4)COC5)cc(Br)cc3[N+](=O)[O-])C2)c1 [Example 236] | 10 to 50 |
| CNc1cncc(C(=O)N2CC(Nc3c(C(=O)N4CCN(CC(F)(F)F)C(=O)C4)cc(Br)cc3[N+](=O)[O-])C(F)(F)C2)c1 (stereo not shown) [Example 99] | 100 to 200 |
| CNc1cncc(C(=O)N2CCC[C@@H](Nc3c(C(=O)N4CCN(CCOC)[C@H](C)C4)cc(Br)cc3[N+](=O)[O-])C2)c1 [Example 238] | 10 to 50 |
| CNc1cncc(C(=O)N2C[C@H](Nc3c(C(=O)N4C[C@@H](C)O[C@@H](C)C4)cc(Br)cc3[N+](=O)[O-])C[C@H]2C(=O)N[C@H]2CC[C@@H](OC)C2)c1 [Example 434, (2S,4R)-4-((4-bromo-2-((2R,6S)-2,6-dimethylmorpholin-4-carbonyl)-6-nitrophenyl)amino)-N-((1S,3R)-3-methoxycyclopentyl)-1-(5-(methylamino)nicotinoyl) pyrrolidine-2-formamide] | 100 to 200 |
| C[C@@H]1C[C@H](C)CN(C(=O)c2cc(Br)cc([N+](=O)[O-])c2N[C@@H]2CCCN(C(=O)c3cncc(Br)c3)C2)C1 [Example 72] | < 10 |
| CNc1cncc(C(=O)N2C[C@H](Nc3c(C(=O)N4CCCCC4)cc(Br)cc3[N+](=O)[O-])C3(CC3)C2)c1 [Example 82] | 10 to 50 |
| [2H]C1([2H])CC[C@@H](Nc2c(C(=O)N3C[C@@H](C)O[C@@H](C)C3)cc(Br)cc2[N+](=O)[O-])C([2H])([2H])N1C(=O)c1cncc(NC)c1 [Example 354] | 10 to 50 |
| C[C@@H]1CN(C(=O)c2cc(Br)cc(C(F)(F)F)c2N[C@@H]2CCCC[C@@H]2NC(=O)c2cncc3cc(Cl)ccc23)C[C@H](C)O1 [Example 112] | 10 to 50 |
| O=C(N[C@H]1CCCC[C@H]1Nc1c(C(=O)N2CCC(N3CCOCC3)CC2)cc(Br)cc1C(F)(F)F)c1cncc2cc(Cl)ccc12 [Example 109] | 10 to 50 |
| CNc1cncc(C(=O)N2CCC[C@@H](Nc3c(C(=O)N4CCC5(CCCN5)CC4)cc(Br)cc3[N+](=O)[O-])C2)c1 [Example 280] | 10 to 50 |
| CNc1cncc(C(=O)N2C[C@H](Nc3c(C(=O)N4C[C@@H](C)O[C@@H](C)C4)cc(Br)cc3[N+](=O)[O-])C[C@H]2C#Cc2cnn(C)c2)c1 [Example 392] | 50 to 100 |
| Cc1cc(C(=O)N2CCC[C@@H](Nc3c(C(=O)N4CCN(CC(F)(F)F)CC4)cc(Br)cc3[N+](=O)[O-])C2)cc(=O)[nH]1 [Example 146] | 10 to 50 |
| CNc1cncc(C(=O)N2CCC[C@@H](Nc3c(C(=O)N4CCc5nn(C)cc5C4)cc(Br)cc3[N+](=O)[O-])C2)c1 [Example 313] | 10 to 50 |
| O=C(c1cc(Br)cc([N+](=O)[O-])c1N[C@@H]1CCCN(C(=O)C2CNCC(F)(F)C2)C1)N1CCOC(F)(F)C1 (stereo in doubt) [Example 327] | 10 to 50 |
| O=C(c1cccnc1)N1CCC[C@@H](Nc2c(C(=O)N3CCCCC3)cc(Br)cc2[N+](=O)[O-])C1 [Example 4, (R)-(5-bromo-2-((1-nicotinoylpiperidin-3-yl)amino)-3-nitrophenyl)(piperidin-1-yl)methanone] | 50 to 100 |
| CNc1cncc(C(=O)N2CCC[C@@H](Nc3c(C(=O)N4CCC5(CCCO5)CC4)cc(Br)cc3[N+](=O)[O-])C2)c1 [Example 268] | < 10 |
| CNc1cncc(C(=O)N2C[C@H](Nc3c(C(=O)N4C[C@@H](C)O[C@@H](C)C4)cc(Br)cc3[N+](=O)[O-])C[C@H]2C(=O)N[C@@H]2COC(=O)C2)c1 [Example 421] | 100 to 200 |
| CNc1cncc(C(=O)N2CC(Nc3c(C(=O)N4CCN(C5CCCCC5)CC4)cc(Br)cc3[N+](=O)[O-])C(F)(F)C2)c1 (stereo not shown) [Example 172] | 10 to 50 |
| CNc1cncc(C(=O)N2C[C@H](Nc3c(C(=O)N4C[C@@H](C)O[C@@H](C)C4)cc(Br)cc3[N+](=O)[O-])C[C@@H]2C#N)c1 [Example 391] | 50 to 100 |
| O=C(N[C@H]1CCCC[C@H]1Nc1c(C(=O)N2CC(F)(F)C2)cc(Br)cc1[N+](=O)[O-])c1cncc2ccccc12 [Example 1, N-((1S,2R)-2-((4-bromo-2-(3,3-difluoroazetidin-1-carbonyl)-6-nitrophenyl)amino)cyclohexyl) isoquinolin-4-formamide] | 10 to 50 |
| CNc1cncc(C(=O)N2C[C@H](Nc3c(C(=O)N4C[C@@H](C)O[C@@H](C)C4)cc(Br)cc3[N+](=O)[O-])C[C@H]2C(=O)NC2CNC(=O)C2)c1 (stereo partly shown) [Example 378] | 10 to 50 |
